Columns and labels:
human α2C-adrenoceptor [1] = target: T1, human α2C-adrenoceptor (Homo sapiens, UniProt P18825); experiment: Competition binding with 3H-rauwolscine, human alpha-2C; design: expressed in transfected cells; host or cells: Shionogi S115 cells (membranes); details: Mean ± SEM, n = 3 unless indicated, membranes of Shionogi S115 cells, read-out: Binding affinity Ki alpha-2C
T1 sequence (P18825 1-462): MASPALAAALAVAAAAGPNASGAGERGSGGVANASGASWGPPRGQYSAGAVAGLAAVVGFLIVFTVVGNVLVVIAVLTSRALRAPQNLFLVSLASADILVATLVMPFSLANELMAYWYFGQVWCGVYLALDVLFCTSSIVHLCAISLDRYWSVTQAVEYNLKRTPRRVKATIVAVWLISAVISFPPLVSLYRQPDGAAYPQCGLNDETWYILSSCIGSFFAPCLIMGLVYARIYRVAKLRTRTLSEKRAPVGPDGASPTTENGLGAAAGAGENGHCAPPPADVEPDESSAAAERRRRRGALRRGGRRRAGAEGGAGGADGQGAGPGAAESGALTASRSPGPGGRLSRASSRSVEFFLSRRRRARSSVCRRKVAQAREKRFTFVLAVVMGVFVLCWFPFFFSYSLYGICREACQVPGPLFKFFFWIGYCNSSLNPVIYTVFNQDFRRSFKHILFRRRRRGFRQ
Procedure: (§1) Binding Affinity Human Alpha-2-adrenoceptor
(§2) The affinity of test compounds for the three human α2-adrenoceptor subtypes (α2A, α2B and α2C) was determined in competition binding assays with ^3H-rauwolscine. The biological material for these experiments consisted of membranes from Shionogi S115 cells stably transfected with either of the three human α2 subtypes (Marjarnaki et al. 1992). Membrane (5-10 μg of total protein per sample) and 1 nM-2 nM ^3H-rauwolscine (specific activity 78 Ci/mrnmol) were incubated in 50 mM KH2PO4, pH 7.5 with 6 concentrations of the compounds. Each concentration was run in duplicate. Nonspecific binding was defined by 100 μM oxymetazoline and corresponded to 5-15% of total binding. After 30 mim at room temperature, incubations were terminated by rapid vacuum filtration through GF/B glass fiber filter and three 5 ml washes with icecold incubation buffer. The filters were then dried, impregnated with scintillate and their radioactivity was measured by scintillation counting. The analysis of the experiments was carried out by nonlineair least square curve fitting. Experimentally determined IC50 values were converted to Ki's by making use of the Cheng-Prusoff equation (Cheng and Prusoff, 1973). Experiments were repeated a minimum of three times.

human α2A-adrenoceptor [2] = target: T2, human α2A-adrenoceptor (Homo sapiens, UniProt P08913); experiment: Competition binding with 3H-rauwolscine, human alpha-2A; design: expressed in transfected cells; host or cells: Shionogi S115 cells (membranes); details: Mean ± SEM, n = 3 unless indicated, membranes of Shionogi S115 cells, read-out: Binding affinity Ki alpha-2A
T2 sequence (P08913 1-465): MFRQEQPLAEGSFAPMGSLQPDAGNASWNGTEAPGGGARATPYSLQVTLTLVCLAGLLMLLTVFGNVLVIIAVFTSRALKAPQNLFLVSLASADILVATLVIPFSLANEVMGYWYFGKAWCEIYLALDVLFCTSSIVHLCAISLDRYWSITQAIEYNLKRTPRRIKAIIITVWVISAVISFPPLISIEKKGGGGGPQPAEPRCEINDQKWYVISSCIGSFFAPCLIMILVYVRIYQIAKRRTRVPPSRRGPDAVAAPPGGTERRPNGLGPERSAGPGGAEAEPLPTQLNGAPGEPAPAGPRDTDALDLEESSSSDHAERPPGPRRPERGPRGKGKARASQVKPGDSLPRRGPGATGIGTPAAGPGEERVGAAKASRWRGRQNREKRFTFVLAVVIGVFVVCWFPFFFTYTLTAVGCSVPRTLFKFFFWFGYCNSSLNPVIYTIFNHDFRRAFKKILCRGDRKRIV
Procedure: as §1, §2

human α2B-adrenoceptor [3] = target: T3, human α2B-adrenoceptor (Homo sapiens, UniProt P18089); experiment: Competition binding with 3H-rauwolscine, human alpha-2B; design: expressed in transfected cells; host or cells: Shionogi S115 cells (membranes); details: Mean ± SEM, n = 3 unless indicated, membranes of Shionogi S115 cells, read-out: Binding affinity Ki alpha-2B
T3 sequence (P18089 1-450): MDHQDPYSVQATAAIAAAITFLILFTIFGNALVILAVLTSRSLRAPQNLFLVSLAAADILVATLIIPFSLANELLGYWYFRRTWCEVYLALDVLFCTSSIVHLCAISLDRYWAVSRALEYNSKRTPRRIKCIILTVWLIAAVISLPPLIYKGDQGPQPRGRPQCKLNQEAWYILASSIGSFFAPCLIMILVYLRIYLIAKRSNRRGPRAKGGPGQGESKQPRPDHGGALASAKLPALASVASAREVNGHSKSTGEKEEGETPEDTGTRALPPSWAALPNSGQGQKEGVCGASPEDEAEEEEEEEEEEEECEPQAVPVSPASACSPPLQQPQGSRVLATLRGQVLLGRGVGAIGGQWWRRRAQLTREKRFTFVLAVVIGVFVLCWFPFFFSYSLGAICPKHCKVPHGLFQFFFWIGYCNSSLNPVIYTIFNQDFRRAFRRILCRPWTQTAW
Procedure: as §1, §2

human α2C-adrenoceptor [4] = target: T1, human α2C-adrenoceptor; experiment: Inhibition of epinephrine-stimulated 35S-GTPγS binding, human alpha-2C; format: biochemical; details: Mean ± SEM, n minimum three; CHO cell membranes; epinephrine 5 μM; incomplete dose-response curves, KB numbers are minimum estimates; read-out: Antagonist effect KB alpha-2C
Procedure: (§3) Antagonist Activity on Human a2-adrenoceptor Subtypes
(§4) Membranes (2-6 μg of protein per samnple) and 12 concentrations of test compound were preincubated for 30 min with a fixed concentration fo epinephrine (5 μM for α2A, 15 μM for α2B, 5 μM for α2C) in 50 mM Tris, 5 mM MgCl2, 150 mM NaCl, 1 mM DTT,
(§5) 1 mM EDTA, 10 μuM GDP, 30 μM ascoerbic acid, pH 7.4 at room temperature. Binding of radiolabel was started by the addition of trace amounts of ^35S-GTPγS (0.08 nM-0.15 nM, specific activity 1250 Ci/mmol) to the incubation mixture. After an additional 60 min at room temperature, the incubation was terminated by rapid vacuum filtration through glass fiber filter. Filters were washed three times with 5 ml icecold wash buffer (20 mM Tris, 5 mM MgCl2, 1 mM EDTA pH 7.4 at room temperature), dried and counted for radioactivity in a scintiallation counter. Analysis of experiments was carried out by nonlinear least square fitting. Experiments were repeated at least three times.

[5] = target: rat neocortical α1-adrenoceptors; experiment: Competition binding with 3H-prazosin, rat neocortex membranes; details: concentrations of up to 30 μM
Procedure: Binding Affinity Rat Cortical α1-adrenoceptor
The affinity for rat neocortical α1-adrenoceptors was determined in competition binding assays with ^3H-prazosin. The biological material for these assays consisted of membranes from rat neocortex. Membrane suspensions (100-200 μg of total protein per sample) and 0.2 nM-0.25 nM of ^3H-prazosin (specific activity 74 Ci/mmol) were incubated with 6 concentrations of compounds in a total volume of 0.25 ml (50 mM Tris pH 7.7 at 25° C). Each concentration was run in duplicate. Nonspecific binding was defined by 10 μM phentolamine methanesulfonate and corresponded to 25-30% of total binding. After 30 min at room temperature, incubations was terminated by rapid filtration through GF/B glass-fiber filter mats and three washes with ice-cold 10 mM Tris (pH 7.7 at 4° C.). After drying, a solid scintillate was melted onto the filter mats, and their radioactivity was measured by scintillation counting.

human α2B-adrenoceptor [6] = target: T3, human α2B-adrenoceptor; experiment: Inhibition of epinephrine-stimulated 35S-GTPγS binding, human alpha-2B; format: biochemical; details: Mean ± SEM, n minimum three; CHO cell membranes; epinephrine 15 μM; read-out: Antagonist effect KB alpha-2B
Procedure: as §3, §4, §5

human α2A-adrenoceptor [7] = target: T2, human α2A-adrenoceptor; experiment: Inhibition of epinephrine-stimulated 35S-GTPγS binding, human alpha-2A; format: biochemical; details: Mean ± SEM, n minimum three; CHO cell membranes; epinephrine 5 μM; incomplete dose-response curves, KB numbers are minimum estimates; read-out: Antagonist effect KB alpha-2A
Procedure: as §3, §4, §5

| Compound | Ki (human α2C-adrenoceptor [1]) [µM] | Ki (human α2A-adrenoceptor [2]) [µM] | Ki (human α2B-adrenoceptor [3]) [µM] | Kb (human α2C-adrenoceptor [4]) [µM] | IC50 ([5]; read-out: IC50, displacement of 3H-prazosin) [µM] | Ki ([5]; read-out: Ki, displacement of 3H-prazosin) [µM] | Kb (human α2B-adrenoceptor [6]) [µM] | Kb (human α2A-adrenoceptor [7]) [µM] |
| --- | --- | --- | --- | --- | --- | --- | --- | --- |
| CCn1c(CNc2ccc(S(=O)(=O)Nc3nc(C)cc(C)n3)cc2)nc2ccccc21 [A] | > 4.7 | 4.1 ± 0.2 | 0.03 ± 0.004 | 2.4 ± 0.9 | > 30 | > 30 | 0.073 ± 0.023 | 2.4 ± 0.7 |
| Cc1cc(C)nc(NS(=O)(=O)c2ccc(NC(=O)COc3ccccc3)cc2)n1 [E] | > 100 | > 100 | 2.9 ± 0.3 | – | – | – | – | – |
| Cc1cc(C)nc(NS(=O)(=O)c2ccc(NCc3nc4ccccc4n3C)cc2)n1 [B] | > 30 | > 30 | 0.215 ± 0.06 | > 10 | – | – | 0.25 ± 0.08 | > 10 |

Second part, the compound after the results:

| Ki (human α2C-adrenoceptor [1]) [µM] | Ki (human α2A-adrenoceptor [2]) [µM] | Ki (human α2B-adrenoceptor [3]) [µM] | Kb (human α2C-adrenoceptor [4]) [µM] | IC50 ([5]; read-out: IC50, displacement of 3H-prazosin) [µM] | Ki ([5]; read-out: Ki, displacement of 3H-prazosin) [µM] | Kb (human α2B-adrenoceptor [6]) [µM] | Kb (human α2A-adrenoceptor [7]) [µM] | Compound |
| --- | --- | --- | --- | --- | --- | --- | --- | --- |
| > 30 | > 30 | 1.86 | – | – | – | – | – | CCOc1ccc(C(=O)Nc2ccc(S(=O)(=O)Nc3nc(C)cc(C)n3)cc2)cc1 [C] |
| > 30 | > 30 | 0.53 ± 0.09 | – | – | – | – | – | Cc1cc(C)nc(NS(=O)(=O)c2ccc(NC(=O)/C=C/c3ccc(F)cc3)cc2)n1 [D] |

From patent US6521632B2, “Method for the treatment or prevention of a disease mediated by the alpha-2B-adrenoceptor” (Oy Juvantia Pharma LTD, priority 2000, dated 2003)
